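The compound was tested at five concentrations on cells cultured in 96-well plates, with a 48-hour exposure period. At the TGI there is no net growth.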 *1 amine or outer side, *2 acyl side, *3 side chain or, on linkers, in order; H or OH if unused. Where a SMILES comes first, the peptide text is derived from it. Bridges are numbered along the chain shown (N, C = ends). [ ]: non-standard residue; d: D form. The star is where a group is joined. X38 = CC[C@H](C)[C@@H](N[*:1])[C@@H](O)CC(=O)[*:2]; NMeY = CN[C@@H](Cc1ccc(O)cc1)C(=O)O; dNMeL = CN[C@H](CC(C)C)C(=O)O; Hiv = CC(C)[C@H](O)C(=O)O; Pyruvoyl = CC(=O)C(=O)*
Tests used:
Experiment in all cases: NCI anticancer screen, dose series, 48 h
[1] = tested on: UACC-257 melanoma
[2] = tested on: PC-3 prostate
[3] = tested on: MDA-MB-231 breast
[4] = tested on: HS 578T breast
[5] = tested on: OVCAR-3 ovarian
[6] = tested on: TK-10 renal
[7] = tested on: SK-MEL-28 melanoma
[8] = tested on: K-562 leukemia
[9] = tested on: CCRF-CEM leukemia
[10] = tested on: NCI-H23 lung

Structure (SMILES) | TGI [1] [µM] | TGI [2] [µM] | TGI [3] [µM] | TGI [4] [µM] | TGI [5] [µM] | TGI [6] [µM] | TGI [7] [µM] | TGI [8] [µM] | TGI [9] [µM] | TGI [10] [µM]
COc1ccc(/C=C2\OC(=O)C(Cl)=C2c2ccc(OC)cc2)cc1 | > 100 | > 100 | > 100 | > 100 | > 100 | > 100 | > 100 | > 100 | > 100 | 
O=C1NC(N2CCOCC2)=N/C1=C\c1cccs1 | > 100 | > 100 | > 100 | > 100 | > 100 | > 100 | > 100 |  | > 100 | > 100
C[C@H]1[C@H](C)N(Cc2ccccc2)P(=O)(C(O)/C=C/c2ccccc2)N1Cc1ccccc1 (some centres undefined) | 14.6 | 13 | 15.1 | 12.3 |  | 24.1 | > 25 | > 25 |  | > 25
c1ccc(Nc2nnc(CSc3nc(-c4ccccc4)c(-c4ccccc4)[nH]3)s2)cc1 | 50 |  |  |  | 26.7 | > 100 | 44.6 |  | 49.1 | 45.1
O=S(=O)([O-])[O-].[Fe+2].c1ccc(/C(=N\Nc2ccccn2)c2ccccn2)cc1 | 4.39 |  |  |  | 2.67 | 7.73 |  | 8.44 | 9.71 | 8.68
CCOC(=O)c1nc2ccc(C(F)(F)F)cc2nc1NCc1ccc(Cl)c(Cl)c1 | > 100 | 75.9 | > 100 | 80.7 | 66.2 | > 100 |  | > 100 | > 100 | > 100
NC(=O)OCC(COc1ccc(Cl)cc1)OC(=O)c1ccccc1Cl (centres undefined) | 37.8 |  |  |  | 40.7 | 79.9 | 37.7 | 39.4 | 47.4 | 44.8
NCC1(N2CCOCC2)C2CCCC21CO (centres undefined) | > 100 |  |  |  | > 100 |  | > 100 | > 100 | > 100 | > 100
CC(C)=CCCC1(C)C=Cc2c(c(C)cc3c2[nH]c2cc(O)ccc23)O1 (centres undefined) |  |  |  |  | > 25 | > 25 | > 25 | > 25 | > 25 | 
COc1ccc(C2c3cc4c(cc3C(O)C3CCC(=O)N23)OCO4)cc1 (centres undefined) | > 100 | > 100 |  | > 100 | > 100 | > 100 | > 100 | > 100 | > 100 | > 100
CCCCc1ccc(Nc2nc(Cl)c3c(ncn3COCCOC(C)=O)n2)cc1 | 31.4 | 37.4 | 33.4 | 55.2 | 43.8 | 41.8 |  | 51.8 | 60.7 | 35.6
CC1CC2OC(=O)C3CC(O)CC(=C23)[C@@]12C[C@@H](c1ccoc1)OC2=O (some centres undefined) | > 100 |  |  |  | > 100 | > 100 | > 100 | > 100 | > 100 | > 100
COc1cc(/C=C\c2ccccn2)cc(OC)c1OC | > 100 |  |  |  | > 100 | > 100 | > 100 | > 100 | > 100 | > 100
CC[C@H](C)[C@H]1NC(=O)[C@@H](NC(=O)[C@@H](CC(C)C)N(C)C(=O)[C@@H]2CCCN2C(=O)C(C)=O)[C@@H](C)OC(=O)[C@H](Cc2ccc(OC)cc2)N(C)C(=O)[C@@H]2CCCN2C(=O)[C@H](CC(C)C)NC(=O)[C@H](C(C)C)OC(=O)C[C@@H]1O (Pyruvoyl-P[dNMeL]T[X38][Hiv]LP[NMeY](Me); ester 3-C) | 0.0655 | 0.261 | 0.112 | 0.283 | 0.0532 | 0.0643 | 0.543 | 0.104 |  | 0.0421
CC(C)c1ccccc1SC1CC(=O)CC(Sc2ccccc2C(C)C)C12O[C@H](c1ccccc1)[C@@H](c1ccccc1)O2 (some centres undefined) | > 100 | > 100 | 71.8 |  | > 100 | > 100 | > 100 |  | 52.9 | > 100
CC#COP(=O)(OCC)OCC | > 100 |  |  |  | > 100 | > 100 |  | > 100 | > 100 | > 100
CCOC(C[C@H](O)[C@H]1COC(=S)S1)OCC | > 100 |  |  |  | > 100 | > 100 |  |  |  | > 100
O=C1C/C(=C/c2ccc(/C=C3/CC(=O)N(c4cccc(Br)c4)C3=O)cc2)C(=O)N1c1cccc(Br)c1 | > 100 |  |  |  | > 100 | > 100 | > 100 | > 100 | > 100 | > 100
COc1cc(NC(C)=O)c2[nH]c3c(C)cc(NC(C)=O)c(C)c3c2c1 |  |  |  |  | > 100 | > 100 | > 100 | > 100 | > 100 | > 100
O=C(c1ccc(Cl)cc1Cl)N(C(=O)N1CCC(c2ccccc2)CC1)c1ccccc1 | > 100 | > 100 |  |  | > 100 |  | > 100 | > 100 | > 100 | > 100
C[C@@]12C=CC3C/C(=N\C(N)=S)C=C(CCCC4OCCO4)[C@]3(CC1)C2 (some centres undefined) | 40.7 | 50.7 | 43.1 | 72.5 | 39.3 | 49.4 | 35 | > 100 |  | 58.5
COc1ccccc1C1CC(=O)CC(c2ccccc2OC)C12C(=O)NC(=S)NC2=O (centres undefined) | > 100 | > 100 | > 100 |  | > 100 | > 100 | 95.6 | > 100 | > 100 | > 100
COC(=O)[C@H](Cc1ccccc1)NC(=O)NCCN(CCNC(=O)N[C@@H](Cc1ccccc1)C(=O)OC)C(=O)N[C@@H](Cc1ccccc1)C(=O)OC | 40.4 | 40.6 | 46.5 | 45.3 | 39.7 | 37.3 | 35.4 | 61 |  | 36.1
COc1ccc(OC)c2sc(N3C(=O)/C(=C/Cc4ccco4)N=C3c3ccccc3)nc12 | > 100 | 71.5 | > 100 | > 100 | > 100 | > 100 | > 100 | > 100 | 26.9 | 
COc1cc(OCc2ccc3nc(-c4ccccc4)c(N)nc3c2)cc(OC)c1OC | 49.7 | 45.4 | 68.9 | 78.3 | 42.1 | 50.3 | 49 | > 100 | 61.9 | 

Source: PubChem BioAssay (NCI)
